As a reminder, the pKd is the Kd on a negative log10 scale, so that one unit is a factor of ten. As usually defined, the pKi is the Ki on a negative log10 scale, so that one unit is a factor of ten. A high value points to a small Ki. The term inhibition denotes the drop in the measured response relative to a control, in per cent.

In experiment [1] the target is T1, Adenosine receptor A3 (Mus musculus, UniProt Q61618).
T1 sequence (Q61618 whole entry): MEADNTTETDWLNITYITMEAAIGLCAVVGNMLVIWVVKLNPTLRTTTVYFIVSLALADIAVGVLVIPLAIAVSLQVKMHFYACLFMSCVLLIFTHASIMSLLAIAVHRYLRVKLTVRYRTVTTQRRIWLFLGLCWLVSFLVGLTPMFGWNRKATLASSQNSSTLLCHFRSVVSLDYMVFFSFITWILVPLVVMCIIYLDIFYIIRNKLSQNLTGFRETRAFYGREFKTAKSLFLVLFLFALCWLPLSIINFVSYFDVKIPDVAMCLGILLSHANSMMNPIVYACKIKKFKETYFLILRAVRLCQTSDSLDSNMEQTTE
The experiment is described as follows: Binding affinity to mouse adenosine A3 receptor expressed in HEK293 cells measured by radioligand binding assay. Type of experiment: cell-based.

The target in experiment [2] is T2, Adenosine receptor A3 (Rattus norvegicus, UniProt P28647).
T2 sequence (P28647 whole entry): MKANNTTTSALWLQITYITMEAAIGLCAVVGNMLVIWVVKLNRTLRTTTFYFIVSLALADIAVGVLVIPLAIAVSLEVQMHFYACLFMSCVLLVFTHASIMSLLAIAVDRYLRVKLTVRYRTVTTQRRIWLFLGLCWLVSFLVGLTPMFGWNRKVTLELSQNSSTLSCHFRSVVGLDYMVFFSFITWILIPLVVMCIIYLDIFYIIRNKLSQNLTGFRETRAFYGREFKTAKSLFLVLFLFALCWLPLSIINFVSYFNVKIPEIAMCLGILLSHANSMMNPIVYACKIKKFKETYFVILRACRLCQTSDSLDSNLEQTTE
Kind of experiment: Binding affinity to rat adenosine A3 receptor expressed in HEK293 cells measured by radioligand binding assay. The format is cell-based.

The target in experiment [3] is T2, Adenosine receptor A3. The experiment is described as follows: Binding affinity to rat adenosine A3 receptor measured by radioligand binding assay.
For experiment [4], the target named is T1, Adenosine receptor A3. The format is cell-based, HEK293.
The target of experiment [5] is T3, Adenosine receptor A3 (Homo sapiens, UniProt P0DMS8).
T3 sequence (P0DMS8 whole entry): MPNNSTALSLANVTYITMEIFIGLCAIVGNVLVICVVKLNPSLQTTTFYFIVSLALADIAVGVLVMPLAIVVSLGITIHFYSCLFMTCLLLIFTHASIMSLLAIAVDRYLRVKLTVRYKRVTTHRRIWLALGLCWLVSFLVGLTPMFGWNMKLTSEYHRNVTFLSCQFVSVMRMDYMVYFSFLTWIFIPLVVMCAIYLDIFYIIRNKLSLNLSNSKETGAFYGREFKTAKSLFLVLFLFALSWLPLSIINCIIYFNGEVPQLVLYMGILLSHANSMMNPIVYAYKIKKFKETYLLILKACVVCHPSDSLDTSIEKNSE
The format is cell-based, HEK293.

Experiment [6] concerns the target T4, Adenosine receptor A2a (Homo sapiens, UniProt P29274). Kind of experiment: Displacement of [3H] ZM241385 from human adenosine A2A receptor expressed in HEK293 cells at 10 uM incubated for 60 mins by radioligand binding assay. Type of experiment: cell-based.
The target in experiment [7] is T5, Adenosine receptor A1 (Homo sapiens, UniProt P30542).
T5 sequence (P30542 whole entry): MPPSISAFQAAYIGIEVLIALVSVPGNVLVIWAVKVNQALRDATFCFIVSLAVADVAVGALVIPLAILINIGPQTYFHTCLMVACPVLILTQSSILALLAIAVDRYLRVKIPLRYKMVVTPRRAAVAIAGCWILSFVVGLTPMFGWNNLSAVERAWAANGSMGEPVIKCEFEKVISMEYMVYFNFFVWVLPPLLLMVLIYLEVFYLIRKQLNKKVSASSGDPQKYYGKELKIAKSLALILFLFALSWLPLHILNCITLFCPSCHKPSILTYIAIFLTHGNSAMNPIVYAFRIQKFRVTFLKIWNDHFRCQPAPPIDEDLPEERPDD
Kind of experiment: Displacement of [3H] DPCPX from human adenosine A1 receptor expressed in HEK293 cells incubated for 60 mins by radioligand binding assay. The format is cell-based.

The target of experiment [8] is Adenosine receptor A2a (Mus musculus) (UniProt Q60613). Kind of experiment: Displacement of [3H] ZM241385 from mouse adenosine A2A receptor expressed in HEK293 cells at 10 uM incubated for 60 mins by radioligand binding assay. The format is cell-based. (Displacement assays read how much labelled ligand stays bound in the presence of the test substance.)
Adenosine receptor A2a (Mus musculus), sequence (Q60613 whole entry): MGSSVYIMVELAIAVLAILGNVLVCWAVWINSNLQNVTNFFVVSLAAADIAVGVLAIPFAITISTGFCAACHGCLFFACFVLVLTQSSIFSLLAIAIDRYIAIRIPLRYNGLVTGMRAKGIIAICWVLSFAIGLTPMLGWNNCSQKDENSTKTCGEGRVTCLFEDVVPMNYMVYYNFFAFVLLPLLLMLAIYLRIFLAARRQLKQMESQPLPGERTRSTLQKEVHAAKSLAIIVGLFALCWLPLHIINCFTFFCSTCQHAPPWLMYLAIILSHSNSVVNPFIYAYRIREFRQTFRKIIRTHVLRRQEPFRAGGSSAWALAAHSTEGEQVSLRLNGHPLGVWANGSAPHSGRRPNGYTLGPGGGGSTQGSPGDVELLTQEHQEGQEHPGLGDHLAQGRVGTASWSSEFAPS
Experiment [9] deals with T6, Adenosine receptor A1 (Mus musculus, UniProt Q60612).
T6 sequence (Q60612 whole entry): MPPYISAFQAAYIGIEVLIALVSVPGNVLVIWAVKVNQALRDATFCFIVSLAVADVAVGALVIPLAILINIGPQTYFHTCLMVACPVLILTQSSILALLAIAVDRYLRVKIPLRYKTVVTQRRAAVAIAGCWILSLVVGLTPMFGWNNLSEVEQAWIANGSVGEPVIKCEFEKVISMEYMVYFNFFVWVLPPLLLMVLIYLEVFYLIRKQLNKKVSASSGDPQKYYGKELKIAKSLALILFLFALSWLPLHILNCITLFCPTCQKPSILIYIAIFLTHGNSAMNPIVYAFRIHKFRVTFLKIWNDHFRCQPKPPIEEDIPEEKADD
Kind of experiment: Displacement of [3H] DPCPX from mouse adenosine A1 receptor expressed in HEK293 cells incubated for 60 mins by radioligand binding assay. The format is cell-based.

Experiment [10] deals with Sigma intracellular receptor 2 (Homo sapiens, UniProt Q5BJF2). Kind of experiment: Binding affinity to human sigma2 receptor by radioligand binding assay.
Sigma intracellular receptor 2, sequence (Q5BJF2 whole entry): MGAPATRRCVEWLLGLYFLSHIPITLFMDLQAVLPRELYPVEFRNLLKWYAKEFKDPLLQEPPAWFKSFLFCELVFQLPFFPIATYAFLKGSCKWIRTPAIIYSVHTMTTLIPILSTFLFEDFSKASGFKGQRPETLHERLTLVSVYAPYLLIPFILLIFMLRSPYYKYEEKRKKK
For experiment [11], the target named is Translocator protein (Homo sapiens, UniProt P30536). Kind of experiment: Binding affinity to human TSPO receptor by radioligand binding assay.
Translocator protein, sequence (P30536 whole entry): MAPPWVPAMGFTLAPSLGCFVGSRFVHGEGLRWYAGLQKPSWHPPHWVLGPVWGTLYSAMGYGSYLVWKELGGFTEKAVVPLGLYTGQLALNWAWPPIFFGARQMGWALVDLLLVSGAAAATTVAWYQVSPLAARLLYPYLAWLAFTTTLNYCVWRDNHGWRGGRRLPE
In experiment [12] the target is D(3) dopamine receptor (Homo sapiens, UniProt P35462). Kind of experiment: Binding affinity to human D3 receptor by radioligand binding assay.
D(3) dopamine receptor, sequence (P35462 whole entry): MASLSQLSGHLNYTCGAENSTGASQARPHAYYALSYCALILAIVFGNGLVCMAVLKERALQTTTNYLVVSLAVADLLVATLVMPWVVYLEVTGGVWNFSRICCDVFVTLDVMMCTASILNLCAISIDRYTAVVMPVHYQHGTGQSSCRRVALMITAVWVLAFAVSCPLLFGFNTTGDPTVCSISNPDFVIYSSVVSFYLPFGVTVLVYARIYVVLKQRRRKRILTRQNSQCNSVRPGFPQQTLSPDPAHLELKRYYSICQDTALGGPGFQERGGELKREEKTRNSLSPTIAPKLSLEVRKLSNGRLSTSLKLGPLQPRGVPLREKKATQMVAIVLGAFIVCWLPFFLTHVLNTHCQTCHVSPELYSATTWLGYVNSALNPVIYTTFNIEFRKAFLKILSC
In experiment [13] the target is D(4) dopamine receptor (Homo sapiens, UniProt P21917). The experiment is described as follows: Binding affinity to human D4 receptor by radioligand binding assay.
D(4) dopamine receptor, sequence (P21917 whole entry): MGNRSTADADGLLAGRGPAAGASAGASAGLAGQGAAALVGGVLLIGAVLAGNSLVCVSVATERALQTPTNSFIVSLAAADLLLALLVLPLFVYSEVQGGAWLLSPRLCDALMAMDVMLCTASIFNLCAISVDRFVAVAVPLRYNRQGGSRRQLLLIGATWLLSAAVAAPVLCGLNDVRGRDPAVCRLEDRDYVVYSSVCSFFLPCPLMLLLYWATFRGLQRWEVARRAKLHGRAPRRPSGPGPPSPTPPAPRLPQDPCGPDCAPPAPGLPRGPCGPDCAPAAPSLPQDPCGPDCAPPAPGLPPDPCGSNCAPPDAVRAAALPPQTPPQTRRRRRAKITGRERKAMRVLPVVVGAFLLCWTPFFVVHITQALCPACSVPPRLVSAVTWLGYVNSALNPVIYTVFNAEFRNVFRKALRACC
In experiment [14] the target is T4, Adenosine receptor A2a. The experiment is described as follows: Displacement of [3H] ZM241385 from human adenosine A2A receptor expressed in HEK293 cells incubated for 60 mins by radioligand binding assay. Type of experiment: cell-based.
The target in experiment [15] is T1, Adenosine receptor A3. Kind of experiment: Binding affinity to mouse adenosine A3 receptor measured by radioligand binding assay.
Experiment [16] addresses T7, Adenosine receptor A1 (Homo sapiens) (UniProt P30542).
T7 sequence (whole entry): T5 sequence (P30542 whole entry)
The experiment is described as follows: Displacement of [3H] DPCPX from human adenosine A1 receptor expressed in HEK293 cells at 10 uM incubated for 60 mins by radioligand binding assay. Type of experiment: cell-based.

Experiment [17] has as its target T2, Adenosine receptor A3. The format is cell-based, HEK293.
Experiment [18] has as its target Adenosine receptor A2b (Rattus norvegicus) (UniProt P29276). Kind of experiment: Displacement of [3H] DPCPX from rat adenosine A2B receptor expressed in HEK293 cells at 10 uM incubated for 60 mins by radioligand binding assay. The format is cell-based.
For experiment [19], the target named is Adenosine receptor A2b (Mus musculus) (UniProt Q60614). Kind of experiment: Displacement of [3H] DPCPX from mouse adenosine A2B receptor expressed in HEK293 cells at 10 uM incubated for 60 mins by radioligand binding assay. The format is cell-based.
Adenosine receptor A2b (Mus musculus), sequence (Q60614 whole entry): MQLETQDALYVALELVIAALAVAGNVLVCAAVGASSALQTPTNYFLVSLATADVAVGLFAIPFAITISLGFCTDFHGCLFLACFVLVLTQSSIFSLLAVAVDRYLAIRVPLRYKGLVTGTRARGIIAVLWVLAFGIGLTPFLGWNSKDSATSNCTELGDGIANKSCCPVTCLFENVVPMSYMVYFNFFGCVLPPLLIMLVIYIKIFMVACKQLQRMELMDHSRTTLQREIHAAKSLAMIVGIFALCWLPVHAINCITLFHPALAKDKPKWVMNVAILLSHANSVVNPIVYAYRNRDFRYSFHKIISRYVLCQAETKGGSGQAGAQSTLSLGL
Experiment [20] has as its target Adenosine receptor A2b (Homo sapiens) (UniProt P29275). Kind of experiment: Displacement of [3H] DPCPX from human adenosine A2B receptor expressed in HEK293 cells at 10 uM incubated for 60 mins by radioligand binding assay. Type of experiment: cell-based.
The target of experiment [21] is Adenosine receptor A2a (Rattus norvegicus) (UniProt P30543). The experiment is described as follows: Displacement of [3H] ZM241385 from rat adenosine A2A receptor expressed in HEK293 cells at 10 uM incubated for 60 mins by radioligand binding assay. Type of experiment: cell-based.
Adenosine receptor A2a (Rattus norvegicus), sequence (P30543 whole entry): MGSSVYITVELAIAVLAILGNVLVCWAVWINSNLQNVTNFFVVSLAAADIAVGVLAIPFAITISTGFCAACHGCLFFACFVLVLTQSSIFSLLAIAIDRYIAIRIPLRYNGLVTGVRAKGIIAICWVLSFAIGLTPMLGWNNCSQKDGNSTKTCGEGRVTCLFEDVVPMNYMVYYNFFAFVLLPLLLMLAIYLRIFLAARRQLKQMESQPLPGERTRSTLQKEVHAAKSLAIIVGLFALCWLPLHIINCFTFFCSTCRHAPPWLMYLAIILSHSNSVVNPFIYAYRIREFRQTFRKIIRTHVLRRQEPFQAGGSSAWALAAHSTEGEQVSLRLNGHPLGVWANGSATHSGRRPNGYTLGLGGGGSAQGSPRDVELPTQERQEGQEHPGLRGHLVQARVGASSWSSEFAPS
Experiment [22] deals with Adenosine receptor A1 (Mus musculus) (UniProt Q60612). Kind of experiment: Displacement of [3H] DPCPX from mouse adenosine A1 receptor expressed in HEK293 cells at 10 uM incubated for 60 mins by radioligand binding assay. The format is cell-based.
Experiment [23] deals with Adenosine receptor A1 (Rattus norvegicus) (UniProt P25099). Kind of experiment: Displacement of [3H] DPCPX from rat adenosine A1 receptor expressed in HEK293 cells at 10 uM incubated for 60 mins by radioligand binding assay. The format is cell-based.
Adenosine receptor A1 (Rattus norvegicus), sequence (P25099 whole entry): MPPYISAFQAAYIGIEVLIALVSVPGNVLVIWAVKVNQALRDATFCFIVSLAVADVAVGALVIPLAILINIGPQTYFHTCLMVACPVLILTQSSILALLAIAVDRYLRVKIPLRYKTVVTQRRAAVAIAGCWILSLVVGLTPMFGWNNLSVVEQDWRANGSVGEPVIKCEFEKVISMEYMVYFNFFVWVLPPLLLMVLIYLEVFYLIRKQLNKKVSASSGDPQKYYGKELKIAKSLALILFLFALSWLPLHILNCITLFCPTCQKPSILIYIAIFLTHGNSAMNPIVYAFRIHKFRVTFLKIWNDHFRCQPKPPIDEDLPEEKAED

The structures appear in SMILES notation. pKd, pKi: −log10 of the molar value.

T4 sequence (P29274 whole entry): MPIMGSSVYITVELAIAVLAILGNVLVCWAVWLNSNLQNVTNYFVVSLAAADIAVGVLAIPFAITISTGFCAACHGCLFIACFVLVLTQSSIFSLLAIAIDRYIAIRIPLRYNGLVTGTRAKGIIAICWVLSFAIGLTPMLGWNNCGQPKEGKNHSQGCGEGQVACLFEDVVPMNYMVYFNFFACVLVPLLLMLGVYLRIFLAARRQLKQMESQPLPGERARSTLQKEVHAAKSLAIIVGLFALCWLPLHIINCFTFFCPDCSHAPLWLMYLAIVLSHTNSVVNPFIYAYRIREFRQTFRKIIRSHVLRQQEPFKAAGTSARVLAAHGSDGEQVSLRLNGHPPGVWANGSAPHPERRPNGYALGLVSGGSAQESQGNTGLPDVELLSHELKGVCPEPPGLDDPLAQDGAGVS
Adenosine receptor A2b (Homo sapiens), sequence (P29275 whole entry): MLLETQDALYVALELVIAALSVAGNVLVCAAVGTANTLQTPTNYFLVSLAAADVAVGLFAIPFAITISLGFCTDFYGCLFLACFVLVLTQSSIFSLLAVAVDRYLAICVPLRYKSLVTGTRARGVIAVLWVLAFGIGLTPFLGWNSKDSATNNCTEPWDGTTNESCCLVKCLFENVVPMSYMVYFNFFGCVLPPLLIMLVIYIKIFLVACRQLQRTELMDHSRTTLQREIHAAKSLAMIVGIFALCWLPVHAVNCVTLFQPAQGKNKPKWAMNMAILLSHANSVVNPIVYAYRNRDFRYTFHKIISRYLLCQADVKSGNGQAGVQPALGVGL
Adenosine receptor A2b (Rattus norvegicus), sequence (P29276 whole entry): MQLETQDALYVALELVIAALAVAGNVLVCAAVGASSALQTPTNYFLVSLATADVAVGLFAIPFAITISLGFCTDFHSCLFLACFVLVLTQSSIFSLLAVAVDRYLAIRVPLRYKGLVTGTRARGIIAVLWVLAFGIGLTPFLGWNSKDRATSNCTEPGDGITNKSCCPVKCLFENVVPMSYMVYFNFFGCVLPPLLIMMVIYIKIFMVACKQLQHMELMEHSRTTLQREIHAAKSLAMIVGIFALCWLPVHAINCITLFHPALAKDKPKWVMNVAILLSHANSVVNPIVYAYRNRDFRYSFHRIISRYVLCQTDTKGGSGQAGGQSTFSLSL

For the compound `[3H]c1cncc(C(=O)Nc2nc(-c3cc(C)cc(C)c3)c(-c3ccncc3)s2)c1`, the figures for the pKd in [1] and in experiment [2] were 8.43 and 8.55, respectively.
With `CNC(=O)[C@@]12C[C@@H]1[C@@H](n1cnc3c(NCc4cccc(I)c4)nc(Cl)nc31)[C@H](O)[C@@H]2O`, the pKd in [3] is 9.77.
As to `COC(=O)/C=C/c1cc(C)cc(-c2nc(NC(=O)c3cccnc3)sc2-c2ccncc2)c1`, the figures for the pKi in [4], in experiment [5] and in experiment [7] were 6.92, 7.72 and 5.80, respectively. Also, the inhibition in [6] is 15%.
`Cc1cc(Br)cc(-c2nc(NC(=O)c3cccnc3)sc2-c2ccncc2)c1`: the pKi in experiment [4] was 7.65; in experiment [5] it was 8.20; in experiment [9] it was 6.60; in experiment [7], 5.84. The inhibition in experiment [8] was 29%; in experiment [6] it was -7.3%.
Consider `Cc1cc(I)cc(-c2nc(NC(=O)c3cccnc3)sc2-c2ccncc2)c1`, for which the pKi in experiment [4] was 7.91; in experiment [5], 8.21; in experiment [9], 5.58; in experiment [7], 5.06; in experiment [10], 5.43; in experiment [11] it was 5.88. For the same compound, the values for the negative-log Ki (pKi) in [12] and in experiment [13] were 6.47 and 5.91, respectively. Moreover, the inhibition in [8] worked out at 7.4%.
In the case of `Cc1cc(F)cc(-c2nc(NC(=O)c3cccnc3)sc2-c2ccncc2)c1`, the pKi in experiment [5] was 7.16; in [14] it was 5.45; in experiment [7], 7.10.
On to `CCCn1cc2c(nc(NC(=O)Nc3ccc(OC)cc3)n3nc(-c4ccco4)nc23)n1`, for which the pKi in experiment [3] and in experiment [15] was less than 5.00 throughout.
Regarding `Cc1cc(C#Cc2ccc(Cl)s2)cc(-c2nc(NC(=O)c3cccnc3)sc2-c2ccncc2)c1`, the pKi in [5] is 7.09. For the same compound, the inhibition in experiment [6] was -0.5%; in experiment [16] it was 21%.
With `Cc1cc(C)cc(-c2nc(NC(=O)c3cncc(Br)c3)sc2-c2ccncc2)c1`, the pKi in [5] was 7.58; in [14] it was less than 6.00. In addition, the inhibition in [16] amounted to 38%.
As for `CCCOC(=O)c1c(-c2ccccc2)nc(CC)c(C(=O)SCC)c1CCC`, the pKi is 6.67 in experiment [17], 6.46 in [4] and 7.36 in experiment [5]. Besides, the inhibition in experiment [18] is 38.8%; in [19], 20.2%; in experiment [20], 34.5%; in experiment [21] it was 7.4%; in experiment [8], 25.1%; in [6], 16.4%. Also, the inhibition in [22] was determined as 27.4%; in [16], 35.4%; in experiment [23] it was 25.5%.
For the compound `CC[C@@H]1CN2C(=O)N(C)c3nc(-c4ccccc4)[nH]c3C2=N1`, the pKi in experiment [3] was less than 5.00; in experiment [15] it was 5.20.

These data come from ChEMBL document CHEMBL5038675, “Selective A3 Adenosine Receptor Antagonist Radioligand for Human and Rodent Species” (ACS Med Chem Lett, 2022).
